Measured values reported in PMC7488488 (Acta Pharmaceutica Sinica. B, 2019).

Columns and labels:
[1] = target: MDM2 (Homo sapiens, UniProt Q00987); test: TR-FRET; format: binding; conditions: for inhibition at 1 µM: read-out: Inhibition rate at 1.0 μmol/L, MDM2
[2] = test system: T98G cells; test: MTT cell proliferation assay; format: cell-based; conditions: Homo sapiens, T98G, 24 h, read-out: Anti-proliferative activity IC50, T98G
[3] = test system: U87MG cells; test: MTT cell proliferation assay; format: cell-based; conditions: Homo sapiens, U-87 MG, 24 h, read-out: Anti-proliferative activity IC50, U87MG
[4] = test system: U251 cells; test: MTT cell proliferation assay; format: cell-based; conditions: Homo sapiens, U-251, 24 h, read-out: Anti-proliferative activity IC50, U251

MDM2, sequence (Q00987 whole entry): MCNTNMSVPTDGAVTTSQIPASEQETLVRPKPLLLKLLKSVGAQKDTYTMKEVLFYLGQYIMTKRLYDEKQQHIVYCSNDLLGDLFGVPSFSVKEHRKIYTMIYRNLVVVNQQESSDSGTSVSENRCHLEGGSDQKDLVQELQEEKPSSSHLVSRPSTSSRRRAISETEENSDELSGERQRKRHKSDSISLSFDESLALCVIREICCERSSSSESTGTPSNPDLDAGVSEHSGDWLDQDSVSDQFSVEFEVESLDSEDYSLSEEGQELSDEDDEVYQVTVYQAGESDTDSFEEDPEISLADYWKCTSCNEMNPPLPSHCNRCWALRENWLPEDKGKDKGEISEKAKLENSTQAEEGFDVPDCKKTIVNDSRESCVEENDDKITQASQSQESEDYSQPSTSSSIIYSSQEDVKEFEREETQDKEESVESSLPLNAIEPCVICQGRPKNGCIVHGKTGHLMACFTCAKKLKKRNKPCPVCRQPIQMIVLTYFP

Row | SMILES | inhibition at 1 µM [1] [%] | IC50 [2] [µM] | IC50 [3] [µM] | IC50 [4] [µM] | IC50 [1] [µM]
1 | CCOC(=O)[C@H]1Cc2c(cc([N+](=O)[O-])cc2[N+](=O)[O-])[C@@H](O)[C@@]12C(=O)Nc1ccc(F)cc12 [4b, Ethyl (1′R,3R,3′S)-5-fluoro-1′-hydroxy-5′,7′-dinitro-2-oxo-3′,4′-dihydro-1′H-spiro[indoline-3,2′-naphthalene]-3′-carboxylate] | 81.4 ± 10.2 | 49 ± 6.3 | 25.7 ± 1.4 | 32.6 ± 3.5 | 
2 | CCOC(=O)[C@H]1Cc2c(cc([N+](=O)[O-])cc2[N+](=O)[O-])[C@H](O)[C@]12C(=O)Nc1ccc(F)cc12 [4b′, Ethyl (1′S,3S,3′S)-5-fluoro-1′-hydroxy-5′,7′-dinitro-2-oxo-3′,4′-dihydro-1′H-spiro[indoline-3,2′-naphthalene]-3′-carboxylate] | 55.6 | > 50 | > 50 | > 50 | 
3 | CCOC(=O)[C@H]1Cc2c(cc([N+](=O)[O-])cc2[N+](=O)[O-])[C@@H](O)[C@@]12C(=O)Nc1c(F)cccc12 [4c, Ethyl (1′R,3R,3′S)-7-fluoro-1′-hydroxy-5′,7′-dinitro-2-oxo-3′,4′-dihydro-1′H-spiro[indoline-3,2′-naphthalene]-3′-carboxylate] | 76.5 ± 13.7 | 51.6 ± 6.2 | 19.4 ± 2.3 | 34.3 ± 4 | 
4 | CCOC(=O)[C@H]1Cc2c(cc([N+](=O)[O-])cc2[N+](=O)[O-])[C@H](O)[C@]12C(=O)Nc1c(F)cccc12 [4c′, Ethyl (1′S,3S,3′S)-7-fluoro-1′-hydroxy-5′,7′-dinitro-2-oxo-3′,4′-dihydro-1′H-spiro[indoline-3,2′-naphthalene]-3′-carboxylate] | 45.3 | > 50 | 59.9 | > 50 | 
5 | CCOC(=O)[C@H]1Cc2c(cc([N+](=O)[O-])cc2[N+](=O)[O-])[C@@H](O)[C@@]12C(=O)Nc1ccc(Cl)cc12 [4d, Ethyl (1′R,3R,3′S)-5-chloro-1′-hydroxy-5′,7′-dinitro-2-oxo-3′,4′-dihydro-1′H-spiro[indoline-3,2′-naphthalene]-3′-carboxylate] | 82.6 ± 8.4 | 21.6 ± 4.5 | 8.3 ± 1.5 | 17.8 ± 3.2 | 0.52 ± 0.07
6 | CCOC(=O)[C@H]1Cc2c(cc([N+](=O)[O-])cc2[N+](=O)[O-])[C@H](O)[C@]12C(=O)Nc1ccc(Cl)cc12 [4d′, Ethyl (1′S,3S,3′S)-5-chloro-1′-hydroxy-5′,7′-dinitro-2-oxo-3′,4′-dihydro-1′H-spiro[indoline-3,2′-naphthalene]-3′-carboxylate] | 54.2 | > 50 | 60.4 | > 50 | 1.8 ± 0.12
7 | CCOC(=O)[C@H]1Cc2c(cc([N+](=O)[O-])cc2[N+](=O)[O-])[C@@H](O)[C@@]12C(=O)Nc1cc(Cl)ccc12 [4e, Ethyl (1′R,3R,3′S)-6-chloro-1′-hydroxy-5′,7′-dinitro-2-oxo-3′,4′-dihydro-1′H-spiro[indoline-3,2′-naphthalene]-3′-carboxylate] | 76.4 ± 6 | 22.5 ± 4.2 | 19.2 ± 4.4 | 28.6 ± 2.9 | 
8 | CCOC(=O)[C@H]1Cc2c(cc([N+](=O)[O-])cc2[N+](=O)[O-])[C@H](O)[C@]12C(=O)Nc1cc(Cl)ccc12 [4e′, Ethyl (1′S,3S,3′S)-6-chloro-1′-hydroxy-5′,7′-dinitro-2-oxo-3′,4′-dihydro-1′H-spiro[indoline-3,2′-naphthalene]-3′-carboxylate] | 48.3 | > 50 | > 50 | > 50 | 
9 | CCOC(=O)[C@H]1Cc2c(cc([N+](=O)[O-])cc2[N+](=O)[O-])[C@@H](O)[C@@]12C(=O)Nc1cccc(Br)c12 [4f, Ethyl (1′R,3R,3′S)-4-bromo-1′-hydroxy-5′,7′-dinitro-2-oxo-3′,4′-dihydro-1′H-spiro[indoline-3,2′-naphthalene]-3′-carboxylate] | 66.9 ± 9.1 | 27.2 ± 3 | 20.7 ± 3.5 | 25.8 ± 4.2 | 
10 | CCOC(=O)[C@H]1Cc2c(cc([N+](=O)[O-])cc2[N+](=O)[O-])[C@H](O)[C@]12C(=O)Nc1cccc(Br)c12 [4f′, Ethyl (1′S,3S,3′S)-4-bromo-1′-hydroxy-5′,7′-dinitro-2-oxo-3′,4′-dihydro-1′H-spiro[indoline-3,2′-naphthalene]-3′-carboxylate] | 54.8 | > 50 | 69.8 | > 50 | 
11 | CCOC(=O)[C@H]1Cc2c(cc([N+](=O)[O-])cc2[N+](=O)[O-])[C@@H](O)[C@@]12C(=O)Nc1ccc(Br)cc12 [4g, Ethyl (1′R,3R,3′S)-5-bromo-1′-hydroxy-5′,7′-dinitro-2-oxo-3′,4′-dihydro-1′H-spiro[indoline-3,2′-naphthalene]-3′-carboxylate] | 92.3 ± 11.2 | 9.5 ± 0.7 | 4.9 ± 0.5 | 8.6 ± 0.6 | 0.28 ± 0.06
12 | CCOC(=O)[C@H]1Cc2c(cc([N+](=O)[O-])cc2[N+](=O)[O-])[C@H](O)[C@]12C(=O)Nc1ccc(Br)cc12 [4g′, Ethyl (1′S,3S,3′S)-5-bromo-1′-hydroxy-5′,7′-dinitro-2-oxo-3′,4′-dihydro-1′H-spiro[indoline-3,2′-naphthalene]-3′-carboxylate] | 51.9 | > 50 | > 50 | > 50 | 2.5 ± 0.3
13 | CCOC(=O)[C@H]1Cc2c(cc([N+](=O)[O-])cc2[N+](=O)[O-])[C@@H](O)[C@@]12C(=O)Nc1cc(Br)ccc12 [4h, Ethyl (1′R,3R,3′S)-6-bromo-1′-hydroxy-5′,7′-dinitro-2-oxo-3′,4′-dihydro-1′H-spiro[indoline-3,2′-naphthalene]-3′-carboxylate] | 76.7 ± 5.2 | 14.4 ± 2.8 | 20.4 ± 3.3 | 18.3 ± 1.5 | 
14 | CCOC(=O)[C@H]1Cc2c(cc([N+](=O)[O-])cc2[N+](=O)[O-])[C@H](O)[C@]12C(=O)Nc1cc(Br)ccc12 [4h′, Ethyl (1′S,3S,3′S)-6-bromo-1′-hydroxy-5′,7′-dinitro-2-oxo-3′,4′-dihydro-1′H-spiro[indoline-3,2′-naphthalene]-3′-carboxylate] | 61.2 | > 50 | 47.6 | > 50 | 
15 | CCOC(=O)[C@H]1Cc2c(cc([N+](=O)[O-])cc2[N+](=O)[O-])[C@@H](O)[C@@]12C(=O)Nc1ccc([N+](=O)[O-])cc12 [4i, Ethyl (1′R,3R,3′S)-1′-hydroxy-5,5′,7′-trinitro-2-oxo-3′,4′-dihydro-1′H-spiro[indoline-3,2′-naphthalene]-3′-carboxylate] | 47.7 ± 4.1 | 41.2 ± 6.1 | 25.6 ± 2.8 | 36.2 ± 4.6 | 
16 | CCOC(=O)[C@H]1Cc2c(cc([N+](=O)[O-])cc2[N+](=O)[O-])[C@H](O)[C@]12C(=O)Nc1ccc([N+](=O)[O-])cc12 [4i′, Ethyl (1′S,3S,3′S)-1′-hydroxy-5,5′,7′-trinitro-2-oxo-3′,4′-dihydro-1′H-spiro[indoline-3,2′-naphthalene]-3′-carboxylate] | 39.3 | > 50 | 47.9 | > 50 | 
17 | CCOC(=O)[C@H]1Cc2c(cc([N+](=O)[O-])cc2[N+](=O)[O-])[C@@H](O)[C@@]12C(=O)Nc1ccc(C)cc12 [4j, Ethyl (1′R,3R,3′S)-1′-hydroxy-5-methyl-5′,7′-dinitro-2-oxo-3′,4′-dihydro-1′H-spiro[indoline-3,2′-naphthalene]-3′-carboxylate] | 64.4 ± 7.2 | 39.3 ± 3.6 | 31.1 ± 1.76 | 38.9 ± 4.5 | 
18 | CCOC(=O)[C@H]1Cc2c(cc([N+](=O)[O-])cc2[N+](=O)[O-])[C@H](O)[C@]12C(=O)Nc1ccc(C)cc12 [4j′, Ethyl (1′S,3S,3′S)-1′-hydroxy-5-methyl-5′,7′-dinitro-2-oxo-3′,4′-dihydro-1′H-spiro[indoline-3,2′-naphthalene]-3′-carboxylate] | 49.2 | > 50 | > 50 | > 50 | 
19 | O=C(c1ccccc1)[C@H]1Cc2c(cc([N+](=O)[O-])cc2[N+](=O)[O-])[C@@H](O)[C@@]12C(=O)Nc1ccccc12 [4k, (1′R,3R,3′S)-3′-Benzoyl-1′-hydroxy-5′,7′-dinitro-3′,4′-dihydro-1′H-spiro[indoline-3,2′-naphthalen]-2-one] | 46.4 ± 4.9 | 43.7 ± 6.6 | 38.7 ± 6.5 | 53.8 ± 9 | 
20 | O=C(c1ccccc1)[C@H]1Cc2c(cc([N+](=O)[O-])cc2[N+](=O)[O-])[C@H](O)[C@]12C(=O)Nc1ccccc12 [4k′, (1′S,3S,3′S)-3′-Benzoyl-1′-hydroxy-5′,7′-dinitro-3′,4′-dihydro-1′H-spiro[indoline-3,2′-naphthalen]-2-one] | 35.4 | > 50 | > 50 | > 50 | 
21 | O=C(c1ccccc1F)[C@H]1Cc2c(cc([N+](=O)[O-])cc2[N+](=O)[O-])[C@@H](O)[C@@]12C(=O)Nc1ccccc12 [4l, (1′R,3R,3′S)-3′-(2-Fluorobenzoyl)-1′-hydroxy-5′,7′-dinitro-3′,4′-dihydro-1′H-spiro[indoline-3,2′-naphthalen]-2-one] | 47.2 ± 5.71 | 43.6 ± 4.8 | 32.5 ± 4.7 | 38.7 ± 6.1 | 
22 | O=C(c1ccccc1F)[C@H]1Cc2c(cc([N+](=O)[O-])cc2[N+](=O)[O-])[C@H](O)[C@]12C(=O)Nc1ccccc12 [4l′, (1′S,3S,3′S)-3′-(2-Fluorobenzoyl)-1′-hydroxy-5′,7′-dinitro-3′,4′-dihydro-1′H-spiro[indoline-3,2′-naphthalen]-2-one] | 31.6 | > 50 | > 50 | > 50 | 
23 | O=C(c1ccc(F)cc1)[C@H]1Cc2c(cc([N+](=O)[O-])cc2[N+](=O)[O-])[C@@H](O)[C@@]12C(=O)Nc1ccccc12 [4m, (1′R,3R,3′S)-3′-(4-Fluorobenzoyl)-1′-hydroxy-5′,7′-dinitro-3′,4′-dihydro-1′H-spiro[indoline-3,2′-naphthalen]-2-one] | 44.6 ± 3.7 | 37.1 ± 3.2 | 47.2 ± 3.8 | 39.5 ± 3.8 | 
